# Data taken from patent US12428377B2, “Sodium-hydrogen exchanger 3 inhibitor compounds” (Eli Lilly and Company, priority 2019, dated 2025).
# Key:
# male Sprague Dawley rats = assay: Radiolabeled phosphate absorption in rats, Studies 1-3 (plasma radioactivity); format: in vivo, rat; conditions: Study 2, rats; for Absorption (vs. vehicle control): mean ± SEM
# Protocol: Effect of Example 2 in Combination with an NPT2b Inhibitor (Compound A) on Phosphate Absorption in Rats
# NPT2b inhibitor dosing solutions: Compound A and poly-1-vinylpyrrolidone-co-vinyl acetate (PVP-VA, Sigma-Aldrich) are weighed into a bottle at a ratio of 30% Compound A and 70% PVP-VA by weight. A clear yellow solution is prepared by diluting the mixture in MeOH followed by the addition of 2 mol NaOH per mol Compound A using 5 N NaOH. The solution is spray dried by a stream of hot nitrogen and the solid dispersion powder is collected and then further dried in a vacuum oven. Doses for the sprayed dried solid dispersion (SDD) are expressed as active pharmaceutical ingredient (API) throughout.
# To make the Compound A dosing solution, an appropriate amount of Compound A SDD is weighed in a vial and dissolved in water (10 mL/kg dosing volume). […] The subsequent solutions for lower doses are prepared by serial dilutions with water. PVP-VA at 7 mg/mL is used as a vehicle control.
# NHE3 inhibitor dosing solutions: To make the Example 2 dosing solution, an appropriate amount of the compound is weighed in a vial and dissolved in 1% HEC (10 mL/kg dosing volume). […] The subsequent solutions for lower doses are prepared by serial dilutions with HEC.
# To make the radiolabeled phosphate dosing solution, a 16.25 mM Na2HPO4, 0.9% saline, pH 7.4 solution is prepared and filtered using a sterile, 0.22 μm, polyethersulfone, Millex-GP Syringe Filter Unit (EMD Millipore). Radioactive phosphate (H3^33PO4, Perkin Elmer) is added at about 2.5 μCi per mL of the solution and filtered again.
# Three separate studies are performed. In these studies, male Sprague Dawley rats, are randomized into groups with approximately equal mean body weights. Following an overnight fast, all the animals are dosed at 10 mL/kg with either vehicle, varying doses of Compound A (Study 1), varying doses of Example 2 (Study 2) or 1.2 mg/kg Compound A and varying doses of Example 2 (Study 3). 15 min later, radiolabeled phosphate is orally dosed in a 2 mL volume. 15 min later, blood is collected and plasma is prepared. Radioactivity (dpm) in 50 μL plasma is measured by scintillation counting and is used to calculate phosphate absorption. The results are normalized with the vehicle controls representing 100% absorption. The curves are fitted with nonlinear regression with variable slope using GraphPad Prism 6 to calculate the ED50 and Emax given in Table 7. […] No curve fit was performed for Compound A alone in Study 1.
# SGLT1 = target: T1, SGLT1 (Homo sapiens, UniProt P13866); assay: SGLT1 inhibition (selectivity)
# T1 sequence (P13866 1-664): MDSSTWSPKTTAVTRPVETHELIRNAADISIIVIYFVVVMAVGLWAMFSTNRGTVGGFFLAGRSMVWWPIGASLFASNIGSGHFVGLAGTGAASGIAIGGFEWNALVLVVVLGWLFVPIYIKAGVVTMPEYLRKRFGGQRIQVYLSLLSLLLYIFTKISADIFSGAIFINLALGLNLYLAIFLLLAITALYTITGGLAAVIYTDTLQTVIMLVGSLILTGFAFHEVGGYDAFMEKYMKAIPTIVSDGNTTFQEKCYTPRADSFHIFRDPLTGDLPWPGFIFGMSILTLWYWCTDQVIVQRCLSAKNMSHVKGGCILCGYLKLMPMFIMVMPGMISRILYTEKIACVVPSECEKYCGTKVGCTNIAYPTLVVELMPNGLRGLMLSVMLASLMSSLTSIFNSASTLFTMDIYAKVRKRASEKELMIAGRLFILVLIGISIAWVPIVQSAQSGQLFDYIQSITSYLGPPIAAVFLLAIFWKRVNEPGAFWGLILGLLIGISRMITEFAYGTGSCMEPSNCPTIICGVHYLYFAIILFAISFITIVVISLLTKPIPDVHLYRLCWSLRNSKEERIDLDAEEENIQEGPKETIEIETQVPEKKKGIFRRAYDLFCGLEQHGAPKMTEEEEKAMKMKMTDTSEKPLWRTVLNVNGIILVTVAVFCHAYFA
structure (smiles),measurement,setting,value
"CN1Cc2c(Cl)cc(Cl)cc2[C@H](c2cccc(S(=O)(=O)NCCOCCOCCN/C(=N\C(N)=O)NCCCCN/C(=N/C(N)=O)NCCOCCOCCNS(=O)(=O)c3cccc([C@@H]4CN(C)Cc5c(Cl)cc(Cl)cc54)c3)c2)C1.Cl.Cl [Example 2, [[4-[[N′-Carbamoyl-N-[2-[2-[2-[[3-[(4S)-6,8-dichloro-2-methyl-3,4-dihydro-1H-isoquinolin-4-yl]phenyl]sulfonylamino]ethoxy]ethoxy]ethyl]carbamimidoyl]amino]butylamino]-[2-[2-[2-[[3-[(4S)-6,8-dichloro-2-methyl-3,4-dihydro-1H-isoquinolin-4-yl]phenyl]sulfonylamino]ethoxy]ethoxy]ethylamino]methylene]urea dihydrochloride]",ED50,"male Sprague Dawley rats; Rattus norvegicus, Example 2 alone",0.041 mg/kg
same,Absorption (vs. vehicle control),male Sprague Dawley rats; Example 2 0.001 mg/kg,97.16 ± 20.76%
same,Absorption (vs. vehicle control),male Sprague Dawley rats; Example 2 0.003 mg/kg,100.81 ± 20.74%
same,Absorption (vs. vehicle control),male Sprague Dawley rats; Example 2 0.01 mg/kg,75.15 ± 15.52%
same,Absorption (vs. vehicle control),male Sprague Dawley rats; Example 2 0.03 mg/kg,83.17 ± 17.99%
same,Absorption (vs. vehicle control),male Sprague Dawley rats; Example 2 0.1 mg/kg,57.29 ± 11.20%
same,Absorption (vs. vehicle control),male Sprague Dawley rats; Example 2 0.3 mg/kg,71.09 ± 13.98%
same,Absorption (vs. vehicle control),male Sprague Dawley rats; Example 2 1 mg/kg,44.29 ± 9.09%
same,Absorption (vs. vehicle control),male Sprague Dawley rats; Example 2 3 mg/kg,60.04 ± 12.00%
same,Absorption (vs. vehicle control),male Sprague Dawley rats; Example 2 10 mg/kg,63.47 ± 8.39%
same,% Inhibition at the highest dose (phosphate absorption),"male Sprague Dawley rats; Example 2 highest dose tested (10 mg/kg), dihydrochloride",37%
same,IC50,SGLT1,6.6 µM
